The assay can be described thus: cellular cytoskeleton assembly phenotype modulators – imaging, high-content imaging, retest and dose response, confirmation (AID 1249).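 On all read-outs here: compound exposure lasted 24 h before fixation.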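 On inhibition: plate controls were untreated cells for no effect and reference compound treated cells for full effect.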 To be noted: cell-based imaging, cytoskeleton assembly phenotype, high content; for inhibition: at 2 µM, stronger effect = higher value; for cell count: at 10 µM, stronger effect = lower value.

The values below come from PubChem BioAssay AID1249 (Columbia University Molecular Screening Center, 2008).

Activity calls are given as the source filed them. How the calls were made is not given here.

The term inhibition denotes the relative decrease from the control value, in per cent. On to `Cn1cc(-c2nnnn2-c2ccc(Cl)cc2)c(=O)c2ccccc21`, for which the inhibition is -6.6% (inactive).
In the case of `CCOc1cc(S(=O)(=O)Nc2ccccc2CC)ccc1Cl`, the inhibition is -1.7% (inactive).
Take `O=S(=O)(c1cccc(-n2cnnn2)c1)N1CCOCC1`: the inhibition was -4.7% (inactive).
For the compound `CCc1nnc(NC(=O)CSc2nnc(COc3ccccc3)n2-c2ccc(C)cc2)s1`, the inhibition is -4.1% (inactive).
For the compound `COc1ccc(O)c(C=Nc2cc(C)on2)c1`, the inhibition was -0.2% (inactive).
For the compound `CCn1c(=O)cc(OCC(=O)NCc2ccco2)c2ccccc21`, the inhibition was -5% (inactive).
With `COc1cc2c(cc1NS(=O)(=O)N1CCCC1)oc1ccccc12`, the inhibition is 2.5% (inactive).
The same measure, in the same setting: the result for `NC1=CC(=O)c2cccc3cccc1c23` reads -0.4% (inactive).
Consider `Cc1cc(NC(=O)CSc2nc(-c3cccs3)cc(C(F)(F)F)n2)no1`, for which the inhibition was -6.4% (inactive).
For `COC(=O)Sc1nc(N2CCOCC2)c2c(c1C#N)CC(C)(C)OC2`, the inhibition was 4.8% (inactive).
Take `COc1cccc(C(=O)COc2cccc(NC(=O)c3cccc([N+](=O)[O-])c3)c2)c1`: the inhibition was -2.2% (inactive).
Regarding `Cc1cc(N2CCC(C)CC2)nc(-n2nc(C)cc2C)n1`, the inhibition was 4.7% (inactive).
As for `COc1ccc(NC(=O)C(NC(=O)c2ccccc2)C(C)C)cc1` (centres undefined), the inhibition was 4.5% (inactive).
For the compound `CCOC(=O)C1=C(CSc2nc3c(cc2C#N)CN(C)CC3)OC(N)=C(C#N)C1c1ccccc1` (centres undefined), the inhibition is 1.4% (inactive).
Regarding `COc1ccc(C2=Nn3c(nnc3-c3ccccc3OC)SC2)cc1OC`, the inhibition was 0.9% (inactive).
`CN=c1sc2ccccc2n1CC(O)COc1ccccc1` (centres undefined): the inhibition is -6.5% (inactive).
Same read-out and setting: the same measure for `C/C=C/COC(=O)c1[nH]c2c(c1C)C(=O)CC(c1ccco1)C2` (centres undefined): -1.7% (inactive); for `Cc1ccc(-c2nn(C(C)(C)C)c3ncnc(N)c23)cc1`: -7.8% (inactive).
Consider `O=C1Nc2ccc(S(=O)(=O)N3CCOCC3)c3cccc1c23`, for which the inhibition was 0.5% (inactive).
In the case of `Cc1ccc(CNC(=O)Cn2ccc3ccccc3c2=O)o1`, the inhibition was -10.7% (inactive).
Turning to `CNC(=O)c1ccccc1NC(=O)c1ccco1`, the inhibition is 0.5% (inactive).
As for `C/C(=C\C(=O)c1cccnc1)Nc1ccc(C)c(C)c1`, the inhibition is 1.3% (inactive).
As for `Cc1cc(C)c(/C=N/NC(N)=O)c(C)c1/C=N/NC(N)=O`, the inhibition was -10% (inactive).
Turning to `CCS(=O)(=O)N1CCC(C(=O)NC2CCCCC2)CC1`, the inhibition is 3.1% (inactive).
For the compound `COc1ccc2[nH]c(=O)c(CN(C(=O)c3ccncc3)C(C)C)cc2c1`, the inhibition was -5.6% (inactive).
Take `O=C(N/N=C/c1ccncc1)c1ccccc1`: the inhibition was 1.1% (inactive).
For the compound `Cc1cc(NC(=O)CSc2nc3ccccc3c(=O)n2C2CCCC2)no1`, the inhibition is 6.7% (inactive).
Consider `COc1cc(C(=O)N2CCN(c3cc(Cl)ccc3Cl)CC2)cc(OC)c1OC`, for which the inhibition was -2.9% (inactive).
On to `COc1cc2c(cc1OC)CN(C(=O)C(C)(C)C)CC2`, for which the inhibition is -1.3% (inactive).
For `N#Cc1nc(-c2ccco2)oc1N1CCOCC1`, the inhibition is 3.4% (inactive).
Compound `COc1cc(C(=O)N/N=C/c2ccsc2C)cc(OC)c1OC` came in with a cell count of 34.2%.
For `CCOc1ccc2ccccc2c1/C=N/n1cncn1`, the inhibition is 1.1% (inactive).
Same read-out and setting: the result for `COC1(c2ccccc2)NC(=S)NN=C1c1ccccc1` (centres undefined) reads -7.4% (inactive); that for `O=C(O)c1ccc(CNCc2ccccc2Cl)cc1`, 21.6% (inactive); that for `COc1ccc(OC)c(NS(=O)(=O)c2ccc(N3CCCC3=O)cc2)c1`, -3.6% (inactive).
In the case of `O=[N+]([O-])c1cnccc1Nc1ccc(F)cc1`, the inhibition was 4.7% (inactive).
With `Cc1ccc(F)cc1NC(=O)c1ccc2c(c1)OCO2`, the inhibition is -1.6% (inactive).
For the compound `CCOc1cc(/C=C2/C(=O)N(c3ccccc3)N=C2C)ccc1OC(=O)c1ccco1`, the inhibition was 4.7% (inactive).
Turning to `CC(=O)c1c(C)oc2ccc(N(C(C)=O)S(=O)(=O)c3ccc(Cl)c([N+](=O)[O-])c3)cc12`, the inhibition is -11.2% (inactive).
Take `Cc1ccc(OCC(O)CN2CCN(CC(O)COc3ccc(C)cc3)CC2)cc1` (centres undefined): the inhibition was 10.9% (inactive).
The same measure, in the same setting: the same measure for `Cc1ccc(C)c(NC(=O)c2nnn(Cc3ccccc3)c2N)c1`: -0.1% (inactive); for `CCC(=O)Nc1cccc(C(=O)/C=C/c2cc(Br)ccc2OC)c1`: 0% (inactive); for `Cc1ccc(OCC(O)CNS(=O)(=O)c2ccccc2C(=O)N2CCCCC2)cc1` (centres undefined): -15.6% (inactive).
On the same count and under the same terms, the same measure for `COc1cc(C2Nc3ccc4ncccc4c3C3=C2C(=O)CCC3)cc(OC)c1O` (centres undefined): 1.2% (inactive); for `CC(=O)c1cccc(NC(=O)NCc2cccnc2)c1`: 12.9% (inactive); for `CC(C)(C)C(=O)/C(=C\c1cccc([N+](=O)[O-])c1)n1cncn1`: 0.1% (inactive).
In the case of `O=C(COC(=O)C1(c2ccccc2F)CCCC1)NC1CCS(=O)(=O)C1` (centres undefined), the inhibition was -1% (inactive).
Turning to `Nc1nnc(SCC(=O)NCc2ccc3c(c2)OCO3)s1`, the inhibition is 3.6% (inactive).
For `COc1ccccc1-n1cnc2cc(NCc3ccco3)ccc21`, the inhibition was 10.7% (inactive).
The same measure, in the same setting: the result for `CCCc1nc(SCC(=O)Nc2nnc(CC)s2)c2c(C)c(C)sc2n1` reads 8.7% (inactive); that for `CC1=C([N+](=O)[O-])C(c2ccccc2)C2=C(N1)c1ccccc1C2=O` (centres undefined), 8.7% (inactive); that for `O=C(NC1CCCCC1)N(CCN1CCOCC1)Cc1cc2cc3c(cc2[nH]c1=O)OCCO3`, 32.9% (inactive).
`CCC(=O)c1c[nH]c(C(=O)NCC2CCCO2)c1` (centres undefined): the inhibition is -0.5% (inactive).
`O=C(Nc1ncc2c(n1)CC(c1ccco1)CC2=O)c1ccc(Cl)cc1` (centres undefined): the inhibition is -4.9% (inactive).
Take `O=[N+]([O-])c1ccc(O)c(/C=N/Nc2ccc(Cl)nn2)c1`: the inhibition is -6.8% (inactive).
Regarding `COc1ccccc1N(C)S(=O)(=O)c1ccc(C(=O)NCC(C)C)cc1`, the inhibition is 2.3% (inactive).
On to `O=C(CCCCCN1C(=O)c2ccccc2C1=O)Nc1nccs1`, for which the inhibition was 8.8% (inactive).
Take `CSc1nc2nccc(-c3ccc(Oc4ccccc4)cc3)n2n1`: the inhibition is -15.1% (inactive).
With `CCOC(=O)C1CCN(C(=O)c2cn(CCOC)c(=O)c3c2c2ccccc2n3C)CC1`, the inhibition is -1.6% (inactive).
For the compound `COc1ccc(/C=N/NC(=O)c2ccccc2Cl)cc1CSc1nc2ccccc2s1`, the inhibition was -6.6% (inactive).
With `CCN1C(=O)CSC1=NC12CC3CC(CC(C3)C1)C2`, the inhibition is -5.5% (inactive).
Consider `COc1ccccc1C(=O)Nc1ccc2c(c1)nc(CN1CCN(C(C)=O)CC1)n2C`, for which the inhibition is 5.7% (inactive).
Take `Cc1nc(-c2cccnc2)sc1C(=O)Nc1cccc(C(F)(F)F)c1`: the inhibition is 2.2% (inactive).
Turning to `Cc1ccc(-n2ncc3c(N4CCN(c5ccccc5)CC4)ncnc32)c(C)c1`, the inhibition is -18.4% (inactive).
Consider `COc1cc2c3c(c1OC)-c1cc(O)ccc1CC3NCC2` (centres undefined), for which the inhibition is -1.7% (inactive).
Consider `COC(=O)c1ccccc1NC(=O)Cn1c(-c2nonc2N)nc2ccccc21`, for which the inhibition is 4.2% (inactive).
As to `O=S(=O)(C/C(=C/CO)S(=O)(=O)c1ccccc1)c1ccccc1`, the inhibition was -4.1% (inactive).
`COc1ccccc1OCCn1cc(C(=O)c2ccco2)c2ccccc21`: the inhibition is 3.7% (inactive).
Same read-out and setting: the same measure for `CCOc1cc(-c2conc2N)cc(OCC)c1OCC`: 10.2% (inactive).
`COCCOC(=O)c1[nH]c2c(c1C)C(=O)CC(c1ccccc1)C2` (centres undefined) displayed a cell count of 56%.
Turning to `COc1ccc(OC)c(N(CC(=O)Nc2ccccc2)S(C)(=O)=O)c1`, the inhibition is 16.3% (inactive).
`CCC(C)[C@@H](NC(=O)OC(C)(C)C)c1nnc(S(=O)(=O)Cc2cccc(C)c2)o1` (some centres undefined): the inhibition is 1.2% (inactive).
As for `CCN1CCN(CC(=O)Nc2nc3ccc(OC)cc3s2)CC1`, the inhibition was -8.7% (inactive).
On to `O=C(NCc1ccco1)c1cc(-c2ccc(Cl)cc2)on1`, for which the inhibition was 10.5% (inactive).
On to `CCC(=O)N1c2ccc(S(=O)(=O)CCC(=O)N3CCn4c3nc3ccccc34)cc2CC1C` (centres undefined), for which the inhibition is 0% (inactive).
The same measure, in the same setting: the result for `CCn1c(SCC(=O)Nc2ccc(C(=O)OC)cc2)nnc1-c1cccs1` reads 0.4% (inactive); that for `Cc1oc2cc3c(C(=O)N4CCCCC4)c(C)oc3cc2c1C(=O)N1CCCCC1`, -4.7% (inactive).
In the case of `COc1ccc(C(=O)C(CN2CCCC2)c2ccccc2)cc1` (centres undefined), the inhibition is 8.8% (inactive).
Still for that read-out and setting: the same measure for `CCOc1cc(C(=O)Nc2cccc3ncccc23)cc(OCC)c1OCC`: -20.6% (inactive); for `CC1Cc2cc(-c3csc(NC(=O)Cc4cccs4)n3)ccc2N1S(C)(=O)=O` (centres undefined): -0.1% (inactive).
Still for that read-out and setting: the same measure for `CCOC(=O)c1ccc(NC(=O)Cn2nnc(-c3ccccc3)n2)cc1`: 1.3% (inactive).
The same measure, in the same setting: the same measure for `CCCOc1ccc(C(=O)C(CN2CCOCC2)c2ccccc2)cc1` (centres undefined): 4.4% (inactive).
With `O=C1C2CCCN2C(c2cccnc2)N1c1ccc(Cl)c(Cl)c1` (centres undefined), the inhibition was 3.6% (inactive).
Consider `C=CCNC(=O)c1c(Cl)cccc1Cl`, for which the inhibition is -5.1% (inactive).
On the same count and under the same terms, the result for `O=c1[nH]c2cccnc2n1Cc1ccccc1` reads -3.8% (inactive).
Take `COc1ccccc1-c1cc(C(F)(F)F)nc(S(=O)(=O)CCCC(=O)N2CCCCC2C)n1` (centres undefined): the inhibition was 7.4% (inactive).
Turning to `CCOC(=O)C1C(=O)NC(N2CCCCC2)=NC1c1ccco1` (centres undefined), the inhibition was -0.9% (inactive).
Same read-out and setting: the result for `O=S(=O)(c1ccc(Cl)c(Cl)c1)c1snnc1-c1ccccc1` reads 5.7% (inactive); that for `Cc1cc(C)n(C(=O)c2ccc(NC(=O)C3COc4ccccc4O3)cc2)n1` (centres undefined), 1.1% (inactive).
